Reference: patent publication US20250179143A1, “SYSTEMS AND METHODS FOR CHAPERONE-MEDIATED LIGAND EXCHANGE ON MHC-I AND MHC-RELATED MOLECULES USING CHICKEN TAPBPR” (priority 2022, published 2025)
Non-standard residues stand in square brackets, D forms with d. No end group written: not given here.

Legend:
[1] = DSF thermal stability of pMHC-I molecules; type: physicochemical
[2] = molecular target: chTAPBPR/HLA-B*08:01 complex (Homo sapiens, UniProt P01889, A93T/A95T/D138N/E176V/E187T/K202T/Q94N/R180D/S35A/V36M/Y33D/Y91F); assay: EMSA of peptide-receptive complex with peptides; conditions: 10-fold molar excess peptide
HLA-A*02:01 = HLA-A*02:01 (Homo sapiens, UniProt P04439, D140Y/D185E/D98H/E176V/E277Q/G131W/G231S/I119V/I121R/I166T/I218V/L300P/L318F/N151K/N90K/P208A/P217A/Q86G/Q94H/R138H/R169H/T345S); assay: Fluorescence polarization (FP) peptide exchange
[3] = HLA-A*02:01 refolded with the named peptide
[4] = absence or presence of 10 nM hTAPBPR

| Substance | exchange of βF placeholder peptide on HLA-A*02:01 for fluorescent peptide (HLA-A*02:01; 5000 nM hTAPBPR) | Tm [1, 3] [°C] | further results |
| --- | --- | --- | --- |
| A*02:01/βFILGFVFTV: HLA-A*02:01 loaded with βFILGFVFTV (SEQ ID NO: 66) ([βPhe]ILGFVFTV-OH; not fully specified; printed as βFILGFVFTV; also: loaded in HLA-A*02:01 complex) | – | – | Tm (° C.) ([1]; HLA-A*02 subtypes loaded with KILGFVFβFV and HLA-A*02:01 loaded with βF scanning peptides): 53.9 °C |
| AIFQSSMTK [HIV] | – | – | pMHC-I bands upon incubation of the complex with the peptide [2]: not |
| ALWMRLLPL [T1D30] | – | – | pMHC-I bands upon incubation of the complex with the peptide [2]: discrete pMHC-I bands |
| FLRGRAYGL [EBV] | – | – | pMHC-I bands upon incubation of the complex with the peptide [2]: discrete pMHC-I bands |
| ILDTAGQEEY [RAS, reference compound] | – | – | Tm ([1]; HLA-A*01:01 refolded with the named peptide): 52 °C |
| KILGFVF(BF)V [BetaA02] | complete fluorescent peptide exchange | 53 | – |
| KILGFVFJV (photolabile J residue; VARIANT 8 J=3-amino-3-(2-nitrophenyl)-propionic acid) [PhotoA02, reference compound] | – | 52 | – |
| KILGFVβFTV [βF-P7] | allowed peptide loading | 63 | exchange of βF placeholder peptide on HLA-A*02:01 for fluorescent peptide (HLA-A*02:01; [4]): no peptide exchange |
| KILGFβFFTV [βF-P6] | allowed peptide loading | 61 | exchange of βF placeholder peptide on HLA-A*02:01 for fluorescent peptide (HLA-A*02:01; [4]): no peptide exchange |
| KILGβFVFTV [βF-P5] | allowed peptide loading | 62 | – |
| KILβFFVFTV [βF-P4] | complete fluorescent peptide exchange | – | – |
| KIβFGFVFTV [βF-P3] | complete fluorescent peptide exchange | 58 | – |
| MLYQHLLPL [T1D95] | – | – | pMHC-I bands upon incubation of the complex with the peptide [2]: discrete pMHC-I bands |
| βFILGFVFTV [βF-P1] | complete fluorescent peptide exchange | – | – |
